Target: Beta-2 adrenergic receptor (Rattus norvegicus) (UniProt P10608)
Assay: Inhibition of beta-2 adrenergic receptor isolated from rat lung homogenates

Beta-2 adrenergic receptor (Rattus norvegicus), sequence (P10608 whole entry, looked up): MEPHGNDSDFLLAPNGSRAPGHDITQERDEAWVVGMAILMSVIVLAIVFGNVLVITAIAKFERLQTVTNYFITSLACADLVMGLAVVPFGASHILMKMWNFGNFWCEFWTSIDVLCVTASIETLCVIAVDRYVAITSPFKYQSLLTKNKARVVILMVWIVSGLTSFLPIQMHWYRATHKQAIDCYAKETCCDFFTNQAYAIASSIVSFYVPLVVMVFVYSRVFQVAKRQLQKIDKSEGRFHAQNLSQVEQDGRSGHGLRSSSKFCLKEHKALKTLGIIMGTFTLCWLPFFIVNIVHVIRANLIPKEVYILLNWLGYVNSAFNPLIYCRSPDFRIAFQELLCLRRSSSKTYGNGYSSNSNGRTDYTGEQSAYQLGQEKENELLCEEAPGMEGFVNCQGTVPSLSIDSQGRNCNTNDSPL

With CCOC(=O)c1ccc(NCC(O)CON=C(C2CC2)C2CC2)cc1 (stereo unspecified) [4-(3-Dicyclopropylmethyleneaminooxy-2-hydroxy-propylamino)-benzoic acid ethyl ester] as the compound, how does the IC50 read?
Its IC50 is > 10 µM.

Which IC50 does the source give for O=C(O)c1ccc(NCC(O)CON=C(C2CC2)C2CC2)cc1 (stereo unspecified) [4-(3-Dicyclopropylmethyleneaminooxy-2-hydroxy-propylamino)-benzoic acid] here?
Its IC50 is > 10 µM.

Cc1cccc(NCC(O)CON=C(C2CC2)C2CC2)c1 (stereo unspecified) [Dicyclopropyl-methanone O-(2-hydroxy-3-m-tolylamino-propyl)-oxime] was tested. Which IC50 did it give?
Its IC50 is > 10 µM.

With Cc1ccccc1NCC(O)CON=C(C1CC1)C1CC1 (stereo unspecified) [Dicyclopropyl-methanone O-(2-hydroxy-3-o-tolylamino-propyl)-oxime] as the compound, how does the IC50 read?
Its IC50 is > 10 µM.

With Cc1ccc(NCC(O)CON=C(C2CC2)C2CC2)cc1 (stereo unspecified) [Dicyclopropyl-methanone O-(2-hydroxy-3-p-tolylamino-propyl)-oxime] as the compound, how does the IC50 read?
Its IC50 is > 10 µM.

CC(C)(Cc1ccc(NCC(O)CON=C(C2CC2)C2CC2)cc1)NCC(O)CON=C(C1CC1)C1CC1 (stereo unspecified) [Dicyclopropyl-methanone O-(3-{2-[4-(3-dicyclopropylmethyleneaminooxy-2-hydroxy-propylamino)-phenyl]-1,1-dimethyl-ethylamino}-2-hydroxy-propyl)-oxime] was tested. Which IC50 did it give?
The IC50 was 1.5 µM.

Which IC50 does the source give for OC(CNc1ccccc1I)CON=C(C1CC1)C1CC1 (stereo unspecified) [Dicyclopropyl-methanone O-[2-hydroxy-3-(2-iodo-phenylamino)-propyl]-oxime] here?
The IC50 was > 10 µM.

How did the IC50 turn out when OC(CNc1cccc(I)c1)CON=C(C1CC1)C1CC1 (stereo unspecified) [Dicyclopropyl-methanone O-[2-hydroxy-3-(3-iodo-phenylamino)-propyl]-oxime] was run?
The IC50 was > 10 µM.

Which IC50 does the source give for Oc1ccc(NCC(O)CON=C(C2CC2)C2CC2)cc1 (stereo unspecified) [Dicyclopropyl-methanone O-[2-hydroxy-3-(4-hydroxy-phenylamino)-propyl]-oxime] here?
Its IC50 is > 10 µM.

For OC(CNc1ccc(I)cc1)CON=C(C1CC1)C1CC1 (stereo unspecified) [Dicyclopropyl-methanone O-[2-hydroxy-3-(4-iodo-phenylamino)-propyl]-oxime], which IC50 is on record?
The IC50 was > 10 µM.

Which IC50 does the source give for Cc1ccnc(NCC(O)CON=C(C2CC2)C2CC2)c1 (stereo unspecified) [Dicyclopropyl-methanone O-[2-hydroxy-3-(4-methyl-pyridin-2-ylamino)-propyl]-oxime] here?
The IC50 was > 10 µM.

How did the IC50 turn out when O=[N+]([O-])c1ccc(NCC(O)CO[N-][C+](C2CC2)C2CC2)cc1 (stereo unspecified) [Dicyclopropyl-methanone O-[2-hydroxy-3-(4-nitro-phenylamino)-propyl]-oxime] was run?
The IC50 was > 10 µM.

How did the IC50 turn out when OC(CNc1ccc(C(F)(F)F)cc1)CON=C(C1CC1)C1CC1 (stereo unspecified) [Dicyclopropyl-methanone O-[2-hydroxy-3-(4-trifluoromethyl-phenylamino)-propyl]-oxime] was run?
The IC50 was > 10 µM.

Cc1ccc(NCC(O)CON=C(C2CC2)C2CC2)nc1 (stereo unspecified) [Dicyclopropyl-methanone O-[2-hydroxy-3-(5-methyl-pyridin-2-ylamino)-propyl]-oxime] was tested. Which IC50 did it give?
Its IC50 is > 10 µM.

Which IC50 does the source give for Cc1cccc(NCC(O)CON=C(C2CC2)C2CC2)n1 (stereo unspecified) [Dicyclopropyl-methanone O-[2-hydroxy-3-(6-methyl-pyridin-2-ylamino)-propyl]-oxime] here?
Its IC50 is > 10 µM.

CN(CC(O)CON=C(C1CC1)C1CC1)c1ccccc1 (stereo unspecified) [Dicyclopropyl-methanone O-[2-hydroxy-3-(methyl-phenyl-amino)-propyl]-oxime] was tested. Which IC50 did it give?
Its IC50 is > 10 µM.

Which IC50 does the source give for OC(CNc1ccccn1)CON=C(C1CC1)C1CC1 (stereo unspecified) [Dicyclopropyl-methanone O-[2-hydroxy-3-(pyridin-2-ylamino)-propyl]-oxime] here?
Its IC50 is > 10 µM.

Which IC50 does the source give for OC(CNc1ccncc1)CON=C(C1CC1)C1CC1 (stereo unspecified) [Dicyclopropyl-methanone O-[2-hydroxy-3-(pyridin-4-ylamino)-propyl]-oxime] here?
Its IC50 is > 10 µM.

OC(CNc1nc2ccccc2[nH]1)CON=C(C1CC1)C1CC1 (stereo unspecified) [Dicyclopropyl-methanone O-[3-(1H-benzoimidazol-2-ylamino)-2-hydroxy-propyl]-oxime] was tested. Which IC50 did it give?
The IC50 was > 10 µM.

OC(CNc1ccc(Br)cc1)CON=C(C1CC1)C1CC1 (stereo unspecified) [Dicyclopropyl-methanone O-[3-(4-bromo-phenylamino)-2-hydroxy-propyl]-oxime] was tested. Which IC50 did it give?
Its IC50 is > 10 µM.

How did the IC50 turn out when CCCCc1ccc(NCC(O)CON=C(C2CC2)C2CC2)cc1 (stereo unspecified) [Dicyclopropyl-methanone O-[3-(4-butyl-phenylamino)-2-hydroxy-propyl]-oxime] was run?
The IC50 was > 10 µM.

With OC(CNc1ccc(Cl)cc1)CON=C(C1CC1)C1CC1 (stereo unspecified) [Dicyclopropyl-methanone O-[3-(4-chloro-phenylamino)-2-hydroxy-propyl]-oxime] as the compound, how does the IC50 read?
The IC50 was > 10 µM.

OC(CNc1ccc(F)cc1)CON=C(C1CC1)C1CC1 (stereo unspecified) [Dicyclopropyl-methanone O-[3-(4-fluoro-phenylamino)-2-hydroxy-propyl]-oxime] was tested. Which IC50 did it give?
The IC50 was > 10 µM.

With CC(C)(C)c1ccc(NCC(O)CON=C(C2CC2)C2CC2)cc1 (stereo unspecified) [Dicyclopropyl-methanone O-[3-(4-tert-butyl-phenylamino)-2-hydroxy-propyl]-oxime] as the compound, how does the IC50 read?
The IC50 was > 10 µM.

With OC(CNc1nc2ccccc2s1)CON=C(C1CC1)C1CC1 (stereo unspecified) [Dicyclopropyl-methanone O-[3-(benzothiazol-2-ylamino)-2-hydroxy-propyl]-oxime] as the compound, how does the IC50 read?
The IC50 was > 10 µM.

For OC(CNc1ccccc1-c1ccccc1)CON=C(C1CC1)C1CC1 (stereo unspecified) [Dicyclopropyl-methanone O-[3-(biphenyl-2-ylamino)-2-hydroxy-propyl]-oxime], which IC50 is on record?
The IC50 was > 10 µM.

Which IC50 does the source give for OC(CNc1ccc(-c2ccccc2)cc1)CON=C(C1CC1)C1CC1 (stereo unspecified) [Dicyclopropyl-methanone O-[3-(biphenyl-4-ylamino)-2-hydroxy-propyl]-oxime] here?
The IC50 was > 10 µM.

Which IC50 does the source give for CC(C)(Cc1ccc(NCC(O)CO[N-][C+](C2CC2)C2CC2)cc1)[N+](=O)[O-] (stereo unspecified) [Dicyclopropyl-methanone O-{2-hydroxy-3-[4-(2-methyl-2-nitro-propyl)-phenylamino]-propyl}-oxime] here?
Its IC50 is > 10 µM.

CC(C)(Cc1ccc(N)cc1)NCC(O)CON=C(C1CC1)C1CC1 (stereo unspecified) [Dicyclopropyl-methanone O-{3-[2-(4-amino-phenyl)-1,1-dimethyl-ethylamino]-2-hydroxy-propyl}-oxime] was tested. Which IC50 did it give?
The IC50 was 2 µM.

With CC(C)(N)Cc1ccc(NCC(O)CON=C(C2CC2)C2CC2)cc1 (stereo unspecified) [Dicyclopropyl-methanone O-{3-[4-(2-amino-2-methyl-propyl)-phenylamino]-2-hydroxy-propyl}-oxime] as the compound, how does the IC50 read?
Its IC50 is > 10 µM.

OC(CNc1ccccc1)CON=C(C1CC1)C1CC1 (stereo unspecified) [Dicyclopropylmethanone O-(3-anilino-2-hydroxypropyl)oxime] was tested. Which IC50 did it give?
The IC50 was > 10 µM.

From BindingDB's records for doi:10.1021/jm970338c (University of Grenoble, 1998)
